# Patent publication US10406218B2 (priority 2014, dated 2019)
# Like-named read-outs stand apart in the source and are kept apart here.
# Legend:
# Format in all cases: cell-based, human
# [1] = system: IL-10 production by cells of HC donors; details: for IL-10 SFC: HC donors; for # resp IL-10: number of responding HC donors out of # tested (5 or 6)
# [2] = system: IFNγ production by cells of HC donors; assay: IFNγ production (SFC) in HC donors in response to broadly conserved peptides; details: for IFNg SFC: HC donors; for # resp IFNg: number of responding HC donors out of # tested (5 or 6)
# Description: To test this hypothesis, the HLA binding capacity of the 4241 broadly conserved peptides for common HLA class II alleles was predicted. Next peptides were selected predicted to bind with high affinity to alleles expressed in representative HC donors were tested for IL-10 production. Several frequently recognized IL-10 producing peptides could be identified (FIG. 13A), none of which produced a significant amount of IFNγ (FIG. 13B).
# [3] = system: T cells of LTBI and HC donors; assay: antigen reactivity in LTBI vs HC donors (LTBI-specific or crossreactive); details: response frequency and magnitude in LTBI vs HC donors, FIG. 10
# Source text: The data herein implies that preexisting immunity and occasional boosting might be provided by exposure to NTMs, in a low MTB-complex exposure population such as the one from the general San Diego area. This might be viewed as desirable, or alternatively contributing an undesired confounding factor in evaluation of vaccination strategies. Regardless, whether or not preexisting, non-TB-complex related reactivity is present in the general population is an important issue has implication for the development of vaccination strategies. To further investigate this issue, epitope reactivity data (Lindestamm-Arlehamn et al, 2012) was mapped back to the specific antigens from which the epitopes were derived. Antigens recognized by 2 or more donors were further categorized as LTBI-specific or crossreactive according to the following criteria; antigens were categorized as LTBI-specific if there was a lack of reactivity in HC individuals, or if the ratio between response frequency and total SFC for LTBI/HC were >4. All other antigens were categorized as crossreactive.
# [4] = system: PBMC from 30 HC individuals; assay: ex vivo IFNγ ELISPOT with NTM-specific peptides
# CD4+ memory T cells = system: CD4+ memory T cells
# [5] = response frequency among HC donors, NTM-specific peptides (Table 2)
# [6] = total spot forming cells, IFNγ ELISPOT, NTM-specific peptides (Table 2)
Substance,IL-10 SFC [1],# resp IL-10 [1],IFNg SFC [2],# resp IFNg [2],"Resp Freq [4, 5]","Total SFC [4, 6]",further results
AKSVLIFLGIPLLAG [Peptide 3580.0010],892 SFC,4,35 SFC,0,–,–,–
DRIAQLLVQRVELVE [Peptide 3580.0009],1018 SFC,5,50 SFC,0,–,–,–
AELTRVRQQVIQLLS [Peptide 3580.0001],733 SFC,4,27 SFC,0,–,–,–
ESFLFYSGFYLPMYW [Peptide 3580.0002],570 SFC,4,8 SFC,0,–,–,–
LAMFAIIFFWTPPHT [Peptide 3580.0016],1142 SFC,5,27 SFC,0,–,–,–
ASVSKQFTATAILLL [Peptide 3580.0013],918 SFC,4,23 SFC,0,–,–,–
ASCKYMKMITPAALL [Peptide 3580.0015],730 SFC,4,32 SFC,0,–,–,–
IGQFGIGFYSSFMVA [Peptide 3580.0012],468 SFC,3,10 SFC,0,–,–,–
YVLFLFTQTVRHRDF [Peptide 3580.0014],975 SFC,4,53 SFC,0,–,–,–
MVAFMVRYTSGYLCV [Peptide 3580.0017],1058 SFC,4,8 SFC,0,–,–,–
Rv3804c: MTB antigen currently included in TB vaccines in clinical development,–,–,–,–,–,–,antigen reactivity category (LTBI-specific or crossreactive) [3]: widely cross-reactive
APFISEFLVLLGTFS [Peptide 3580.0005],585 SFC,3,15 SFC,0,–,–,–
FVTYWSFRMMIGLMA [Peptide 3580.0003],563 SFC,4,10 SFC,0,–,–,–
LPFFSFMTYLIAVPT [Peptide 3580.0007],505 SFC,4,22 SFC,0,–,–,–
LSSTEFELLRFLMRN [Peptide 3580.0020],1017 SFC,5,33 SFC,0,–,–,–
FAIMFEALFILTTVD [Peptide 3580.0006],915 SFC,5,32 SFC,0,–,–,–
RELIRAFWPGALSLV [Peptide 3580.0019],422 SFC,3,27 SFC,0,–,–,–
1004 (ARQMLRFLSSPLWRA) [Peptide 1004],–,–,–,–,3%,27 SFC,–
ATFAGIYFWFPKMTG [Peptide 3580.0008],1328 SFC,6,28 SFC,0,–,–,–
621 (AKVLGVFLVTEIVML) [Peptide 621],–,–,–,–,3%,27 SFC,–
646 (ADAVNFGVAPAFIVY) [Peptide 646],–,–,–,–,3%,37 SFC,–
745 (VFALMGLRQLYFLLG) [Peptide 745],–,–,–,–,3%,35 SFC,–
871 (LVYLVGFKTKVSTLL) [Peptide 871],–,–,–,–,3%,28 SFC,–

Substance,IL-10 SFC [1],# resp IL-10 [1],IFNg SFC [2],# resp IFNg [2],"Resp Freq [4, 5]","Total SFC [4, 6]",further results
953 (FEHSVVNMFLFPSGL) [Peptide 953],–,–,–,–,3%,25 SFC,–
HEEIQLLANDFSTML [Peptide 446],–,–,–,–,3%,182 SFC,Resp Freq [4]: 3%; Total SFC [4]: 182 SFC
1368 (TMMLSLVWPIASLGF) [Peptide 1368],–,–,–,–,3%,40 SFC,–
QWGYRMVLPQLILMP [Peptide 868],–,–,–,–,3%,58 SFC,Resp Freq [4]: 3%; Total SFC [4]: 58 SFC
658 (VRRVLPALMNQFISL) [Peptide 658],–,–,–,–,3%,32 SFC,–
ASGLIFGWLAFLLVF [Peptide 3580.0018],652 SFC,4,20 SFC,0,–,–,–
SQRLVTLSYRLDAAA [Peptide 1471],–,–,–,–,7%,58 SFC,Resp Freq [4]: 7%; Total SFC [4]: 58 SFC
GRFIALLRIFAGPLA [Peptide 3580.0011],1480 SFC,5,52 SFC,0,–,–,–
QAAVVRFQEAANKQK [CFP1052-66],–,–,–,–,–,–,"epitope-specific cells in CD4+ naive subset or CD4+ memory subset of control donors (CD4+ memory T cells): No epitope-specific cells were detected; frequency of epitope-specific CD4+ memory T cells, median (CD4+ memory T cells; 5 LTBI donors, median (interquartile range 0.03-0.33)): 0.09"
945 (ALIHVLWINAGLSCD) [Peptide 945],–,–,–,–,3%,23 SFC,–
DPLIFFRPRVERLFG [Peptide 720],–,–,–,–,10%,125 SFC,Resp Freq [4]: 10%; Total SFC [4]: 125 SFC
LMLIWACDLIVAADN [Peptide 1224],–,–,–,–,10%,97 SFC,Resp Freq [4]: 10%; Total SFC [4]: 97 SFC
424 (AVPNFALTPLLIIWM) [Peptide 424],–,–,–,–,3%,55 SFC,–
1132 (FLFTMLQKTLKGNIF) [Peptide 1132],–,–,–,–,3%,35 SFC,–
421 (DPAFRQVFAAQFLPD) [Peptide 421],–,–,–,–,3%,40 SFC,–
FTGKPEFVENFFMFI [Peptide 3580.0004],622 SFC,3,27 SFC,0,–,–,–
1285 (PADASIVKLYYSELL) [Peptide 1285],–,–,–,–,3%,53 SFC,–
861 (MVFATLLPLGVLQLY) [Peptide 861],–,–,–,–,3%,47 SFC,–
937 (HLMQSVVMVSFPVEV) [Peptide 937],–,–,–,–,3%,22 SFC,–
898 (GQRVITLLASANRDE) [Peptide 898],–,–,–,–,3%,23 SFC,–
1134 (TLLTMLWQNLIGNAV) [Peptide 1134],–,–,–,–,3%,47 SFC,–
1334 (FFDAGLVVFLPIIMT) [Peptide 1334],–,–,–,–,3%,47 SFC,–
